Measured values taken from US20240018158A1, “BRM TARGETING COMPOUNDS AND ASSOCIATED METHODS OF USE” (Prelude Therapeutics Incorporated, priority 2020, published 2024).

Assays:
SMARCA4 = SMARCA4 (Homo sapiens (Human), UniProt P51532); assay: SMARCA4 HiBiT degradation assay in HeLa cells; format: cell-based; conditions: 18 hours; for DC50: read-out: DC50 (SM4-HeLa) SMARCA4 degradation potency; for Dmax: HeLa, read-out: Dmax % (SM4-HeLa) maximum SMARCA4 degradation within the concentrations tested
Protocol: (§1) HiBiT peptide knock-in of SMARCA2 in LgBiT expressing HEK293T cells was performed by CRISPR-mediated tagging system as described Promega. The homozygous HiBiT knock-in on c-terminus SMARCA2 was confirmed by sanger sequence. SMARCA2-HiBiT knock-in Hela monoclonal cell (CS302366) and SMARCA4-HiBiT knock-in Hela monoclonal cell (CS3023226) were purchased from Promega. The heterozygous HiBiT-knock-in was confirmed by sanger sequence in both SMARCA2-HiBiT and SMARCA4-HiBiT monoclonal cells.
(§2) Dispense 10 μL aliquot of prepared Hela-SMARCA2-HiBiT or Hela-SMARCA4-HiBiT cells (1:1 ratio of cells:Trypan Blue (#1450013, Bio-Rad)) onto cell counting slide (#145-0011, Bio-Rad) and obtain cell density and cell viability using cell counter (TC20, Bio-Rad). Remove appropriate volume of resuspended cells from culture flask to accommodate 2500 cells/well @ 20 μL/well. Transfer Hela-HiBiT cells to 50 ml conical (#430290, Corning). Spin down at 1000 rpm for 5 min using tabletop centrifuge (SPINCHRON 15, Beckman). Discard supernatant and resuspend cell pellet in modified EMEM (#30-2003, ATCC) cell culture media containing 10% FBS (F2422-500ML, Sigma), and 1×Penicillin/Streptomycin (200 g/1) (30-002-CI, Corning) to a cell density of 125,000 cells/ml. Dispense 20 μL of resuspended Hela-HiBit cells per well in 384-well TC treated plate (#12-565-343, Thermo Scientific) using standard cassette (#50950372, Thermo Scientific) on Multidrop Combi (#5840310, Thermo Scientific) inside laminar flow cabinet. Dispense test compounds onto plates using digital liquid dispenser (D300E, Tecan). Incubate plates in humidified tissue culture incubator @37° C. for 18 hours. Add 20 ul of prepared Nano-Glo® HiBiT Lytic detection buffer (N3050, Promega) to each well of 384-well plate using small tube cassette (#24073295, Thermo Scientific) on Multidrop Combi, incubate @ RT for 30-60 min. Read plates on microplate reader (Envision 2105, PerkinElmer) using 384 well Ultra-Sensitive luminescence mode. Raw data files and compound information reports are swept into centralized data lake and deconvoluted using automated scripts designed by TetraScience, Inc. Data analysis, curve-fitting and reporting done in Dotmatics Informatics Suite using Screening Ultra module.

SMARCA2 = SMARCA2 (Homo sapiens (Human), UniProt P51531); assay: SMARCA2 HiBiT degradation assay in HeLa cells; format: cell-based; conditions: 18 hours; for DC50: read-out: DC50 (SM2-HeLa) SMARCA2 degradation potency; for Dmax: read-out: Dmax % (SM2-HeLa) maximum SMARCA2 degradation within the concentrations tested
Protocol: as §1, §2

Chain of SMARCA2 (P51531 whole entry): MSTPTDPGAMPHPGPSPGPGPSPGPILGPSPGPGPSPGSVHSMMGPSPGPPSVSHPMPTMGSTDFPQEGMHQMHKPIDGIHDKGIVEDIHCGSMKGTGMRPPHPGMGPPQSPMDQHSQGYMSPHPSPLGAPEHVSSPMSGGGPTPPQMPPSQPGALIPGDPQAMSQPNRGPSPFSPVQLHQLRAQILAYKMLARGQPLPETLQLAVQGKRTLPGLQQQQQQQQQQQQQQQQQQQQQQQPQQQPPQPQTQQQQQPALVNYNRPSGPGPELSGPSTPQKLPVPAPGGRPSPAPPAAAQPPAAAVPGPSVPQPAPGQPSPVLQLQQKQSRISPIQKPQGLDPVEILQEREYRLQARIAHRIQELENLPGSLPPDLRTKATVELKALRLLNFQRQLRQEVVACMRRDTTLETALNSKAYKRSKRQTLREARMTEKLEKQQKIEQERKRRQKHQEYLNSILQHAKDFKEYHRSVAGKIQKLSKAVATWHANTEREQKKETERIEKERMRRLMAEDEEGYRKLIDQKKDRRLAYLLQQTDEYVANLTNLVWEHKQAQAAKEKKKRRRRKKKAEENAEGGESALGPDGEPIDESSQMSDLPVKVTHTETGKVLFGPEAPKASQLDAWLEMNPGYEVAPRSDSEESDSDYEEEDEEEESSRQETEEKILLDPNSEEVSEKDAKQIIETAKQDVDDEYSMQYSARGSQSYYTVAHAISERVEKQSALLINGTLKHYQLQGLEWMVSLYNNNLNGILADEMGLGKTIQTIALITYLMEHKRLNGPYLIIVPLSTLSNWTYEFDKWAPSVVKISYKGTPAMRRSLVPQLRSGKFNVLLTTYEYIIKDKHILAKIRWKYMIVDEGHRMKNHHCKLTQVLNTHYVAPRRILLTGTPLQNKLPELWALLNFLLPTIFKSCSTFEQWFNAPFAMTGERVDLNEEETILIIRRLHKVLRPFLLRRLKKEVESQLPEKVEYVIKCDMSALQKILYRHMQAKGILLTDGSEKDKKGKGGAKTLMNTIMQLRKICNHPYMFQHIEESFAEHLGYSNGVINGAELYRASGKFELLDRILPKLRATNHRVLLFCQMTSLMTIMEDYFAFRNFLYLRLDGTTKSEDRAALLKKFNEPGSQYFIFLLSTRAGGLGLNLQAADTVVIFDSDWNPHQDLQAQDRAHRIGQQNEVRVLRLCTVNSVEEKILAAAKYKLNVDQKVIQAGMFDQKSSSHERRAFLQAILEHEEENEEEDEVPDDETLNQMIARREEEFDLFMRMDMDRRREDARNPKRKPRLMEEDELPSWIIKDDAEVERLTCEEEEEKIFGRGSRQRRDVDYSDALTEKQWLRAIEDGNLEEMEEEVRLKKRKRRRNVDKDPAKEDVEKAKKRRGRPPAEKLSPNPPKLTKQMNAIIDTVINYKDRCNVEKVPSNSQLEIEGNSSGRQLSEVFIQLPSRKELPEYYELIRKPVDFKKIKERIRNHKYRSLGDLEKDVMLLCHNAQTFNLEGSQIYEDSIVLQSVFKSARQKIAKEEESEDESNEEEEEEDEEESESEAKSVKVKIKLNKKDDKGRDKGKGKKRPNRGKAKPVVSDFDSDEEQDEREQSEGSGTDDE
Chain of SMARCA4 (P51532 whole entry): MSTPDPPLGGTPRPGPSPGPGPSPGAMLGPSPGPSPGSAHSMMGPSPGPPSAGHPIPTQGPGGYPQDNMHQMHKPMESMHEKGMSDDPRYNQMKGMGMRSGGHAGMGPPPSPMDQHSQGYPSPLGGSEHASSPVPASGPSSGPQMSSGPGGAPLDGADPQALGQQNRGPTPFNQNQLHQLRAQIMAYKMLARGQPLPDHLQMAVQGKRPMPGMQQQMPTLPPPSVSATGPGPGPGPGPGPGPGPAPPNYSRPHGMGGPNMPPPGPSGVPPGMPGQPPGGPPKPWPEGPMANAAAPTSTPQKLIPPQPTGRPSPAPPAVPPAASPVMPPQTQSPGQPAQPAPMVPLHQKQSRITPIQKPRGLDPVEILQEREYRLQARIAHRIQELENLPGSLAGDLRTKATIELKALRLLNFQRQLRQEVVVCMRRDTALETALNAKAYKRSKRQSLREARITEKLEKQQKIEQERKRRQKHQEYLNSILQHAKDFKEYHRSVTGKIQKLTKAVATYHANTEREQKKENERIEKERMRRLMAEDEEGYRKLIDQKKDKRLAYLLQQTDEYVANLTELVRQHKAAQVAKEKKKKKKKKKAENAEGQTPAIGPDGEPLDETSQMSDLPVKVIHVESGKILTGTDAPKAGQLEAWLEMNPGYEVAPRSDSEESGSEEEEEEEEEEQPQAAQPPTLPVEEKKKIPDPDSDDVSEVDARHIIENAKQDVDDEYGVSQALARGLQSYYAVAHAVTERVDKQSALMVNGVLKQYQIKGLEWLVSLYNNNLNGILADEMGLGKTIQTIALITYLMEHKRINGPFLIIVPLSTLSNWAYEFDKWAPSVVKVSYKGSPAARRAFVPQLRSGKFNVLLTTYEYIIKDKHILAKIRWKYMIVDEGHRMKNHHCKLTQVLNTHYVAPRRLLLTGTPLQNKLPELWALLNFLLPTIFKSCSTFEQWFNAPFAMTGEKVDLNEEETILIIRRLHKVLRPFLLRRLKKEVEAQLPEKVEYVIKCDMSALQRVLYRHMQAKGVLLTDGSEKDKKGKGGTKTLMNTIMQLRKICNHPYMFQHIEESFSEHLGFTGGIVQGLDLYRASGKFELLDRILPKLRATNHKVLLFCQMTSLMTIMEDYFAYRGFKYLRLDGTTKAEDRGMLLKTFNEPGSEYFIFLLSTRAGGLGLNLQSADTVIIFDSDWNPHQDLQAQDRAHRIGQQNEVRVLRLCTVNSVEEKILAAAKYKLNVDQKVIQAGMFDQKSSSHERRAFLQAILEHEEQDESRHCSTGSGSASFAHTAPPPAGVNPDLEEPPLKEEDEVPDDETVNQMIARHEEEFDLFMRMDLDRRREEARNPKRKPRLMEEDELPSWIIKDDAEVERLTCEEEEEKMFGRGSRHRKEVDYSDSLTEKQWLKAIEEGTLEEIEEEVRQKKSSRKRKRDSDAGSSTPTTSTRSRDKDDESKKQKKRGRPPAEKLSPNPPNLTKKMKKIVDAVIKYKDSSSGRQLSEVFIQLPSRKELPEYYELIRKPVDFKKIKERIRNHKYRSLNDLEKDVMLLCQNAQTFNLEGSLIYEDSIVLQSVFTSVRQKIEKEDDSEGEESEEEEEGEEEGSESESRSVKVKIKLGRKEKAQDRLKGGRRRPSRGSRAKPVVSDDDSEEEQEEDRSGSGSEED

DC50 (SMARCA4) [nM] | Dmax (SMARCA4) [%] | DC50 (SMARCA2) [nM] | Dmax (SMARCA2) [%] | Dmax % (SM4-HeLa) maximum SMARCA4 degradation within the concentrations tested (SMARCA4) | Dmax % (SM2-HeLa) maximum SMARCA2 degradation within the concentrations tested (SMARCA2) | SMILES
≥ 10000 | ≤ 50 | < 100 | > 75 | – | – | Cc1ncsc1-c1ccc([C@H](C)NC(=O)[C@@H]2C[C@@H](O)CN2C(=O)C(c2cc(CCN(C)CCN3CCN4c5cc(-c6ccccc6O)nnc5NC[C@H]4C3)no2)C(C)C)cc1 (stereo partly drawn) [Example 34, (2S,4R)-4-hydroxy-1-(2-(3-(2-((2-((S)-2-(2-hydroxyphenyl)-5,6,6a,7,9,10-hexahydro-8H-pyrazino[1′,2′:4,5]pyrazino[2,3-c]pyridazin-8-yl)ethyl)(methyl)amino)ethyl)isoxazol-5-yl)-3-methylbutanoyl)N-((S)-1-(4-(4-methylthiazol-5-yl)phenyl)ethyl)pyrrolidine-2-carboxamide]
< 100 | > 75 | < 100 | > 75 | – | – | Cc1ncsc1-c1ccc([C@H](C)NC(=O)[C@@H]2C[C@@H](O)CN2C(=O)[C@@H](c2cc(OCCN3CCC(CN4CCN5c6cc(-c7ccccc7O)nnc6NC[C@H]5C4)CC3)no2)C(C)C)cc1 [Example 38, (2S,4R)-4-hydroxy-1-((R)-2-(3-(2-(4-(((S)-2-(2-hydroxyphenyl)-5,6,6a,7,9,10-hexahydro-8H-pyrazino[1′,2′:4,5]pyrazino[2,3-c]pyridazin-8-yl)methyl)piperidin-1-yl)ethoxy)isoxazol-5-yl)-3-methylbutanoyl)-N-((S)-1-(4-(4-methylthiazol-5-yl)phenyl)ethyl)pyrrolidine-2-carboxamide]
< 100 | > 75 | < 100 | > 75 | – | – | Cc1ncsc1-c1ccc([C@H](C)NC(=O)[C@@H]2C[C@@H](O)CN2C(=O)[C@@H](c2cc(OCCN(C)C3CCC(N4CCN5c6cc(-c7ccccc7O)nnc6NC[C@H]5C4)CC3)no2)C(C)C)cc1 (stereo partly drawn) [Example 43, (2S,4R)-4-hydroxy-1-((R)-2-(3-(2-((4-((S)-2-(2-hydroxyphenyl)-5,6,6a,7,9,10-hexahydro-8H-pyrazino[1′,2′:4,5]pyrazino[2,3-c]pyridazin-8-yl)cyclohexyl)(methyl)amino)ethoxy)isoxazol-5-yl)-3-methylbutanoyl)-N-((S)-1-(4-(4-methylthiazol-5-yl)phenyl)ethyl)pyrrolidine-2-carboxamide]
< 100 | 50 to 75 | < 100 | > 75 | – | – | Cc1ncsc1-c1ccc([C@H](C)NC(=O)[C@@H]2C[C@@H](O)CN2C(=O)[C@@H](c2cc(CCCN3CCCC(N4CCN5c6cc(-c7ccccc7O)nnc6NC[C@H]5C4)C3)no2)C(C)C)cc1 (stereo partly drawn) [Example 45, (2S,4R)-4-hydroxy-1-((2R)-2-(3-(3-(3-((S)-2-(2-hydroxyphenyl)-5,6,6a,7,9,10-hexahydro-8H-pyrazino[1′,2′:4,5]pyrazino[2,3-c]pyridazin-8-yl)piperidin-1-yl)propyl)isoxazol-5-yl)-3-methylbutanoyl)-N-((S)-1-(4-(4-methylthiazol-5-yl)phenyl)ethyl)pyrrolidine-2-carboxamide]
100 to 1000 | > 75 | < 100 | > 75 | – | – | Cc1ncsc1-c1ccc([C@H](CO)NC(=O)[C@@H]2C[C@@H](O)CN2C(=O)C(c2cc(OCCN3CCC(CN4CCN5c6cc(-c7ccccc7O)nnc6NC[C@H]5C4)CC3)no2)C(C)C)cc1 (stereo partly drawn) [Example 46, (2S,4R)-4-hydroxy-N-((R)-2-hydroxy-1-(4-(4-methylthiazol-5-yl)phenyl)ethyl)-1-(2-(3-(2-(4-(((S)-2-(2-hydroxyphenyl)-5,6,6a,7,9,10-hexahydro-8H-pyrazino[1′,2′:4,5]pyrazino[2,3-c]pyridazin-8-yl)methyl)piperidin-1-yl)ethoxy)isoxazol-5-yl)-3-methylbutanoyl)pyrrolidine-2-carboxamide]
< 100 | > 75 | < 100 | > 75 | – | – | Cc1ncsc1-c1ccc([C@H](C)NC(=O)[C@@H]2C[C@@H](O)CN2C(=O)[C@@H](c2cc(OCCN3CC4CC(N5CCN6c7cc(-c8ccccc8O)nnc7NC[C@H]6C5)CC4C3)no2)C(C)C)cc1 (stereo partly drawn) [Example 47, (2S,4R)-4-hydroxy-1-((2R)-2-(3-(2-(5-((S)-2-(2-hydroxyphenyl)-5,6,6a,7,9,10-hexahydro-8H-pyrazino[1′,2′:4,5]pyrazino[2,3-c]pyridazin-8-yl)hexahydrocyclopenta[c]pyrrol-2(1H)-yl)ethoxy)isoxazol-5-yl)-3-methylbutanoyl)-N-((S)-1-(4-(4-methylthiazol-5-yl)phenyl)ethyl)pyrrolidine-2-carboxamide]
< 100 | – | < 100 | > 75 | B (B = 50%< Dmax <=75%) | – | Cc1ncsc1-c1ccc([C@H](C)NC(=O)[C@@H]2C[C@@H](O)CN2C(=O)[C@@H](c2cc(O[C@@H](C)CN3CCC(N4CCN5c6cc(-c7ccccc7O)nnc6NC[C@H]5C4)C3)no2)C(C)C)cc1 (stereo partly drawn) [Example 48, (2S,4R)-4-hydroxy-1-((2R)-2-(3-(((2S)-1-(3-((S)-2-(2-hydroxyphenyl)-5,6,6a,7,9,10-hexahydro-8H-pyrazino[1′,2′:4,5]pyrazino[2,3-c]pyridazin-8-yl)pyrrolidin-1-yl)propan-2-yl)oxy)isoxazol-5-yl)-3-methylbutanoyl)N-((S)-1-(4-(4-methylthiazol-5-yl)phenyl)ethyl)pyrrolidine-2-carboxamide]
< 100 | – | < 100 | – | A/A (A = Dmax >75%) | A/A (A = Dmax >75%) | Cc1ncsc1-c1ccc([C@H](C)NC(=O)[C@@H]2C[C@@H](O)CN2C(=O)[C@@H](c2cc(O[C@@H](C)CN3CCC(N4CCN5c6cc(-c7ccccc7O)nnc6NC[C@H]5C4)C3)no2)C(C)C)cc1 (stereo partly drawn) [Example 49, (2S,4R)-4-hydroxy-1-((2R)-2-(3-(((2S)-1-(3-((S)-2-(2-hydroxyphenyl)-5,6,6a,7,9,10-hexahydro-8H-pyrazino[1′,2′:4,5]pyrazino[2,3-c]pyridazin-8-yl)pyrrolidin-1-yl)propan-2-yl)oxy)isoxazol-5-yl)-3-methylbutanoyl)-N-((S)-1-(4-(4-methylthiazol-5-yl)phenyl)ethyl)pyrrolidine-2-carboxamide]
< 100 | > 75 | < 100 | > 75 | – | – | Cc1ncsc1-c1ccc([C@H](C)NC(=O)[C@@H]2C[C@@H](O)CN2C(=O)[C@@H](c2cc(OCCN3CCC(N4CCN5c6cc(-c7ccccc7O)nnc6NC[C@H]5C4)CC3C)no2)C(C)C)cc1 (stereo partly drawn) [Example 54, (2S,4R)-4-hydroxy-1-((2R)-2-(3-(2-(4-((S)-2-(2-hydroxyphenyl)-5,6,6a,7,9,10-hexahydro-8H-pyrazino[1′,2′:4,5]pyrazino[2,3-c]pyridazin-8-yl)-2-methylpiperidin-1-yl)ethoxy)isoxazol-5-yl)-3-methylbutanoyl)-N-((S)-1-(4-(4-methylthiazol-5-yl)phenyl)ethyl)pyrrolidine-2-carboxamide]
< 100 | 50 to 75 | < 100 | > 75 | – | – | CCC(CN1CCC(N2CCN3c4cc(-c5ccccc5O)nnc4NC[C@H]3C2)CC1)Oc1cc([C@H](C(=O)N2C[C@H](O)C[C@H]2C(=O)N[C@@H](C)c2ccc(-c3scnc3C)cc2)C(C)C)on1 (stereo partly drawn) [Example 60, (2S,4R)-4-hydroxy-1-(2-(3-((1-(4-((S)-2-(2-hydroxyphenyl)-5,6,6a,7,9,10-hexahydro-8H-pyrazino[1′,2′:4,5]pyrazino[2,3-c]pyridazin-8-yl)piperidin-1-yl)butan-2-yl)oxy)isoxazol-5-yl)-3-methylbutanoyl)-N-((S)-1-(4-(4-methylthiazol-5-yl)phenyl)ethyl)pyrrolidine-2-carboxamide]

SMILES | DC50 (SMARCA4) [nM] | Dmax (SMARCA4) [%] | DC50 (SMARCA2) [nM] | Dmax (SMARCA2) [%] | Dmax % (SM4-HeLa) maximum SMARCA4 degradation within the concentrations tested (SMARCA4) | Dmax % (SM2-HeLa) maximum SMARCA2 degradation within the concentrations tested (SMARCA2)
Cc1ncsc1-c1ccc([C@H](C)NC(=O)[C@@H]2C[C@@H](O)CN2C(=O)[C@@H](c2cc(OC(C)CN3CCC(N4CCN5c6cc(-c7ccccc7O)nnc6NC[C@H]5C4)CC3)no2)C(C)C)cc1 (stereo partly drawn) [Example 57, (2S,4R)-4-hydroxy-1-((2R)-2-(3-((1-(4-((S)-2-(2-hydroxyphenyl)-5,6,6a,7,9,10-hexahydro-8H-pyrazino[1′,2′:4,5]pyrazino[2,3-c]pyridazin-8-yl)piperidin-1-yl)propan-2-yl)oxy)isoxazol-5-yl)-3-methylbutanoyl)-N-((S)-1-(4-(4-methylthiazol-5-yl)phenyl)ethyl)pyrrolidine-2-carboxamide] | 100 to 1000 | 50 to 75 | < 100 | > 75 | – | –
